{
  "source": "paper PMC9599717",
  "about": "“The Multicellular Effects of VDAC1 N-Terminal-Derived Peptide” (Biomolecules, 2022)",
  "key": {"U-87MG cells [1]": {"system": "U-87MG cells", "assay": "Live-cell imaging (HoloMonitor) of cell division and re-fusion of daughter cells", "assay_type": "cell-based, human", "parameters": "dose or concentration left out as unconfirmed", "conditions": "24 h incubation", "procedure": "Cells were seeded in a 6-well plates, treated with D-Δ(1-18)N-Ter-Antp peptide for 24 h, and monitored with the Holomonitor live cell imaging system (Holographic Imaging, Lund, Sweden) for 24 h at 37 °C and 5% CO2 or with a microscope (LX2-KSP; Olympus, Shinjuku, Tokyo, Japan), with images captured by a CCD camera.\nFigure 8 D-Δ(1-18)N-Ter-Antp peptide induced apoptosis and altered cell division. (A) HeLa cells were treated with D-Δ1-18N-Ter-Antp (5 μM, 24 h) and monitored using a live-imaging microscope (HoloMonitor). The time course of cell division is presented. Division–fusion phase times are represented in relation to D-Δ(1-18)N-Ter-Antp administration time (T = 0). i. The cells are in a pre-division stage. ii. The cell divides into two cells. iii. The cell becomes partially fused. iv. The cells become fully fused into one large cell. v. Finally, they become an apoptotic cell. (B,C) HeLa cells incubated with the peptide (10 μM, 24 h) and then stained with anti-tubulin antibodies, followed by secondary anti-mouse-cy3 antibodies (red) followed by actin staining with Phalloidin-488 (green), nuclei stained with DAPI (blue) and visualized by confocal microscopy. Cells with divided nuclei that were connected or in a re-fused state are circled (C). (D) Schematic illustration of cell division phases of control and D-Δ(1-18)N-Ter-Antp peptide-treated cells.\nFigure A1 Vedio S1. […]"}, "U-87MG cells [2]": {"system": "U-87MG cells", "assay": "Acridine orange (AO) staining of acidic vesicles", "assay_type": "cell-based, human", "conditions": "6 h, serum-free DMEM", "procedure": "Figure 7 D-Δ(1-18)-N-Ter-Antp peptide induced vesicle/particle formation. U-87MG cells were treated for 6 h with the indicated concentrations of D-Δ(1-18)N-Ter-Antp peptide in serum-free DMEM. (A) Cells were visualized for vesicle formation under a light microscope. Red circles indicate vesicles/particles. The images were captured at 40× and two folds enlargement is shown. (B,C) Cells were stained with acridine orange (AO). Arrows indicate red/orange stained endosomal/lysosomal vesicles (B). Scale bars were 20 μm. Vesicles/particles are indicated by violet arrows. Quantification of AO staining intensity (C). (D) Cells were stained with anti-vinculin antibodies, followed by secondary anti-mouse-cy3 antibodies. […] (F) U-87MG cells were treated with various concentrations of D-Δ(1-18)N-Ter-Antp peptide for the indicated time and subjected to Oil Red O staining and quantification as described in the Supplementary Data. […]\ncolor was read in a spectrophotometer at 680 nm. […]\nU-87MG cells were treated with D-Δ(1-18)N-Ter-Antp peptide in serum-free DMEM media for 6 h at 37℃, incubated with acridine orange (1 μg/ml) for 15 min, visualized by fluorescence microscopy (Olympus LX2 - KSP, Tokyo, Japan), and images were captured with a CCD camera. About 200 cells were counted for each […]"}},
  "data": [
    {"substance": "19-FTKGYGFGL-26- RQIKIWFQNRRMKWKK [D-Δ(1-18)N-Ter-Antp]", "values": [
      {"measurement": "Percentage of cells with re-fusion of daughter cells", "setting": "U-87MG cells [1]", "result": "60–80%"},
      {"measurement": "Increase in orange color (AO accumulation in acidic vesicles)", "setting": "U-87MG cells [2]", "result": "more than 3 fold"}
    ]}
  ]
}
